In patent US20120308993A1 (priority 2009, published 2012):
“And” between values parts separate entries of the source, which are not always exact repeats. Identical values can stand only once.

Key:
Influenza A (H1N1) 2009 [1] = details: in vivo
Influenza A (H1N1) 2009 [2] = details: in vivo; remark: listed apart in the source

`CCOC(=O)C1=C[C@@H](OC(CC)CC)[C@H](NC(C)=O)[C@@H](N)C1` [Oseltamivir, oseltamivir] was tested, and the RT-PCR (Influenza A (H1N1) 2009 [1]) was “positive”, the ct value (Influenza A (H1N1) 2009 [1]) was 24 and 32 and 35 and the “fever settled, day of illness” value (Influenza A (H1N1) 2009 [2]) was 5. For the same molecule, the “outcome of close contacts given oseltamivir prophylaxis” value (Influenza A (H1N1) 2009 [2]) was “remained well”.
